Measured values reported in ChEMBL document CHEMBL6087428, “Discovery of potent and selective factor XIa inhibitors incorporating triazole-based benzoic acid as novel P2' fragments: Molecular dynamics simulations and anticoagulant activity” (Eur J Med Chem, 2025).

Legend:
Coagulation factor XI [1] = molecular target: T1, Coagulation factor XI (Homo sapiens, UniProt P03951); test: Inhibition of human Factor XIa using Boc-Glu(OBzl)-Ala-Arg-AMC assessed as AMC release preincubated for 15 mins followed by substrate addition and measured after 10 mins by microplate fluorescence reader analysis
Plasma kallikrein [2] = molecular target: T2, Plasma kallikrein (Homo sapiens, UniProt P03952); test: Inhibition of human PKa using H-Pro-Phe-Arg-AMC as substrate incubated for 15 mins by fluorescence reader analysis
Coagulation factor X = Coagulation factor X (Homo sapiens, UniProt P00742); test: Inhibition of human Factor Xa using Boc-Ile-Glu-Gly-Arg-AMC as substrate incubated for 15 mins by fluorescence reader analysis
Trypsin = Trypsin (Homo sapiens, UniProt P07477+P07478+P35030); test: Inhibition of human trypsin using Boc-Ile-Glu-Gly-Arg-AMC as substrate incubated for 15 mins by fluorescence reader analysis; assay type: protein assay
Homo sapiens [3] = species: Homo sapiens; test: Selectivity ratio of IC50 for human trypsin using Boc-Ile-Glu-Gly-Arg-AMC as substrate to IC50 for human Factor XIa using Boc-Glu(OBzl)-Ala-Arg-AMC
Homo sapiens [4] = species: Homo sapiens; test: Selectivity ratio of IC50 for human thrombin using Boc-Asp(OBzl)-Pro-Arg-AMC as substrate to IC50 for human Factor XIa using Boc-Glu(OBzl)-Ala-Arg-AMC
Plasma [5] = test: Anticoagulant activity in citrated human pooled plasma assessed as prolongation of activated partial thromboplastin time incubated for 5 mins by aPTT reagent based semi-automated coagulometric analysis; assay type: functional
Homo sapiens [6] = species: Homo sapiens; test: Selectivity ratio of IC50 for human Factor Xa using Boc-Ile-Glu-Gly-Arg-AMC as substrate to IC50 for human Factor XIa using Boc-Glu(OBzl)-Ala-Arg-AMC
Prothrombin = Prothrombin (Homo sapiens, UniProt P00734); test: Inhibition of human thrombin using Boc-Asp(OBzl)-Pro-Arg-AMC as substrate incubated for 15 mins by fluorescence reader analysis
Plasma [7] = test: Anticoagulant activity in citrated human pooled plasma assessed as prolongation of prothrombin time incubated for 3 mins by PT reagent based semi-automated coagulometric analysis; assay type: functional; conditions: 0.05 h
Coagulation factor XI [8] = molecular target: T1, Coagulation factor XI; test: Inhibition of Factor XIa (unknown origin)
Plasma kallikrein [9] = molecular target: T2, Plasma kallikrein; test: Inhibition of Pka (unknown origin)

T1 sequence (P03951 19-387 limits assumed): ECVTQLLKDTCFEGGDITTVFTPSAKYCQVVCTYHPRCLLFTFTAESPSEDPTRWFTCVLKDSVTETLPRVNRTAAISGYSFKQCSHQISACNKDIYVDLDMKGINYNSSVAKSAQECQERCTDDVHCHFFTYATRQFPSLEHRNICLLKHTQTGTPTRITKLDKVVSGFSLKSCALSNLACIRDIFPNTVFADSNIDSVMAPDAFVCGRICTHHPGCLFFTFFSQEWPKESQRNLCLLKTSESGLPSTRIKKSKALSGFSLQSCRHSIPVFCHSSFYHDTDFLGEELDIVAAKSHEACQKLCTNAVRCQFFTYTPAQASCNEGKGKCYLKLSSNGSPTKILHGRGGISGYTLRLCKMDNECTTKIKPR
T1 sequence (P03951 388-625 limits assumed): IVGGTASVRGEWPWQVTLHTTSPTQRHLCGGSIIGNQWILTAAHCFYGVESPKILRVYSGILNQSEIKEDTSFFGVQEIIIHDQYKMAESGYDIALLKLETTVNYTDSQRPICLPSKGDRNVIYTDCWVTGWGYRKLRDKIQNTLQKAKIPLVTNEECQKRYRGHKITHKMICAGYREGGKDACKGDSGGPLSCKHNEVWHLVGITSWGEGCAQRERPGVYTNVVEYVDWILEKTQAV
Coagulation factor X, sequence (P00742 41-179 limits assumed): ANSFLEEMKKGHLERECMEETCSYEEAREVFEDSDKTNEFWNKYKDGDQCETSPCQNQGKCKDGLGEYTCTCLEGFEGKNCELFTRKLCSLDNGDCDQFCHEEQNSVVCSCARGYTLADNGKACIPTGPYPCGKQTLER
Coagulation factor X, sequence (P00742 235-488 limits assumed): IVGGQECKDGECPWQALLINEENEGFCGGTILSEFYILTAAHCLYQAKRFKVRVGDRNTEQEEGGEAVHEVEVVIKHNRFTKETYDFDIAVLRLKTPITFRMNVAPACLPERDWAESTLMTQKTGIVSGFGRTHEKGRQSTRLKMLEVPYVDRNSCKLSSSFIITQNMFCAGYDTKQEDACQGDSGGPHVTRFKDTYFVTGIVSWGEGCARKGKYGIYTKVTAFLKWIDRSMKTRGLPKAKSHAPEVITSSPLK
T2 sequence (P03952 20-390 limits assumed): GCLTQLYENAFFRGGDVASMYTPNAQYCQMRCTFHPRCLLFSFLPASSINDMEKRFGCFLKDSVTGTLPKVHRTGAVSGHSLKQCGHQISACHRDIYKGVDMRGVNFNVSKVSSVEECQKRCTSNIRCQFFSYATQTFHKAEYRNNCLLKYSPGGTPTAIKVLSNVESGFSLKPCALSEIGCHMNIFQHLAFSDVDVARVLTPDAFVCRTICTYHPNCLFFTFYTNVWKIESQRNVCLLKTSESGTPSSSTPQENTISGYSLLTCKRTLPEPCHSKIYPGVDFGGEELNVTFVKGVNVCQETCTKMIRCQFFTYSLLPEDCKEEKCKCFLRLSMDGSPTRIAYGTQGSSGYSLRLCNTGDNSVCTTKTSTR
T2 sequence (P03952 391-638 limits assumed): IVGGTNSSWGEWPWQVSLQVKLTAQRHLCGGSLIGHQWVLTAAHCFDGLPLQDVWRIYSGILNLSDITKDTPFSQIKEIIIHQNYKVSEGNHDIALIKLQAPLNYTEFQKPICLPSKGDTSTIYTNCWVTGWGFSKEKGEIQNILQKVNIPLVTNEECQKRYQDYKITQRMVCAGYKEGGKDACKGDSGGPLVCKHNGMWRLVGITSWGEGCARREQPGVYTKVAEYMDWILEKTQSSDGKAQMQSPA

| SMILES | IC50 (Coagulation factor XI [1]) [µM] | IC50 (Plasma kallikrein [2]) [µM] | other results |
| --- | --- | --- | --- |
| COc1cn(Cc2cn(-c3cccc(C(=O)O)c3)nn2)c(=O)cc1-c1cc(Cl)ccc1-n1cc(Cl)nn1 | 0.0787 | 0.412 | – |
| COc1cn(Cc2cn(-c3cn[nH]c3)nn2)c(=O)cc1-c1cc(Cl)ccc1-n1cc(Cl)nn1 | 0.186 | 2.06 | – |
| COC(=O)c1ncccc1-n1cc(Cn2cc(OC)c(-c3cc(Cl)ccc3-n3cc(Cl)nn3)cc2=O)nn1 | 2 | 19.7 | – |
| CCC(c1cn(-c2ccccc2)nn1)n1cc(OC)c(-c2cc(Cl)ccc2-n2cc(Cl)nn2)cc1=O (stereo unspecified) | 0.535 | 2.59 | – |
| COc1ccc(-n2cc(Cn3cc(OC)c(-c4cc(Cl)ccc4-n4cc(Cl)nn4)cc3=O)nn2)c(C)n1 | 0.917 | 15.8 | – |
| COc1cn(Cc2cn(-c3ccc(Cl)nc3C)nn2)c(=O)cc1-c1cc(Cl)ccc1-n1cc(Cl)nn1 | 1.02 | 11.1 | – |
| CCC(c1cn(-c2ccccc2)nn1)n1cnc(-c2cc(Cl)ccc2-n2cc(Cl)nn2)cc1=O (stereo unspecified) | 6.34 | 47.2 | – |
| COc1cn(Cc2cn(-c3cccnc3C(=O)O)nn2)c(=O)cc1-c1cc(Cl)ccc1-n1cc(Cl)nn1 | 0.379 | 6.8 | – |
| CCC(c1cn(-c2cnn(C(F)F)c2)nn1)n1cc(OC)c(-c2cc(Cl)ccc2-n2cc(Cl)nn2)cc1=O (stereo unspecified) | 1.33 | 8.13 | – |
| COc1cn([C@@H](Cc2ccccc2)c2cn(-c3ccc(C(=O)O)cc3)nn2)c(=O)cc1-c1cc(Cl)ccc1-n1cc(C(F)(F)F)nn1 | 0.00038 | 0.0592 | IC50 (Coagulation factor X): 31.6 µM; IC50 (Trypsin): 16.5 µM; Ratio IC50 (Homo sapiens [3]): > 10000; Ratio IC50 (Homo sapiens [4]): > 130000; EC1.5 (Plasma [5]): 0.55 µM; Ratio IC50 (Homo sapiens [6]): > 80000; IC50 (Prothrombin): 51 µM; EC2 (Plasma [7]): >100 µM |
| COC(=O)c1ccc(-n2cc(C(Cc3ccccc3)n3cc(OC)c(-c4cc(Cl)ccc4-n4cc(Cl)nn4)cc3=O)nn2)cc1 (stereo unspecified) | 0.027 | 0.522 | – |
| COc1cn([C@H](Cc2ccccc2)c2cn(-c3ccc(C(=O)O)cc3)nn2)c(=O)cc1-c1cc(Cl)ccc1-n1cc(Cl)nn1 | 0.0963 | 1.87 | IC50 (Coagulation factor X): > 100 µM; IC50 (Trypsin): > 100 µM; EC1.5 (Plasma [5]): 29 µM; IC50 (Prothrombin): 46.9 µM; EC2 (Plasma [7]): >100 µM |
| COc1cn([C@H](Cc2ccccc2)c2cn(-c3ccc(C(=O)O)cc3)nn2)c(=O)cc1-c1cc(Cl)ccc1-n1cc(C(F)(F)F)nn1 | 0.102 | 2.75 | IC50 (Coagulation factor X): > 33 µM; IC50 (Trypsin): 88.2 µM; EC1.5 (Plasma [5]): 26.9 µM; IC50 (Prothrombin): > 33 µM; EC2 (Plasma [7]): >100 µM |
| CCC(c1cn(-c2ccccc2C(=O)OC)nn1)n1cc(OC)c(-c2cc(Cl)ccc2-n2cc(Cl)nn2)cc1=O (stereo unspecified) | 1.96 | 4.84 | – |
| COc1cn(Cc2cn(-c3cccnc3C)nn2)c(=O)cc1-c1cc(Cl)ccc1-n1cc(Cl)nn1 | 1.24 | 14.4 | – |
| CC[C@@H](C(=O)Nc1ccc(C(N)=O)c(F)c1)n1cc(OC)c(-c2cc(Cl)ccc2-n2cc(C(F)(F)F)nn2)cc1=O | – | – | IC50 (Coagulation factor X): 7.21 µM; IC50 (Trypsin): 4.05 µM; EC1.5 (Plasma [5]): 0.71 µM; IC50 (Prothrombin): 6.27 µM; EC2 (Plasma [7]): >100 µM |
| CCC(c1cn(-c2cn[nH]c2)nn1)n1cc(OC)c(-c2cc(Cl)ccc2-n2cc(Cl)nn2)cc1=O (stereo unspecified) | 0.379 | 2.51 | – |
| COc1cn(C(Cc2ccccc2)c2cn(-c3ccc(C(=O)O)cc3)nn2)c(=O)cc1-c1cc(Cl)ccc1-n1cc(Cl)nn1 (stereo unspecified) | 0.00226 | 0.141 | IC50 (Coagulation factor X): 48.2 µM; IC50 (Trypsin): 26.1 µM; EC1.5 (Plasma [5]): 1.41 µM; IC50 (Prothrombin): 42 µM; EC2 (Plasma [7]): >100 µM |
| CCC(c1cn(-c2cnn(C)c2)nn1)n1cc(OC)c(-c2cc(Cl)ccc2-n2cc(Cl)nn2)cc1=O (stereo unspecified) | 0.609 | 6.52 | – |
| CCC(c1cn(-c2cn[nH]c2)nn1)n1cnc(-c2cc(Cl)ccc2-n2cc(Cl)nn2)cc1=O (stereo unspecified) | 6.55 | 23.4 | – |
| CC[C@H](c1cn(-c2ccc(C(=O)OC)cc2)nn1)n1cc(OC)c(-c2cc(Cl)ccc2-n2cc(Cl)nn2)cc1=O | 1.1 | 7.85 | IC50 (Coagulation factor X): 101 µM; IC50 (Trypsin): > 100 µM; EC1.5 (Plasma [5]): 392 µM; EC2 (Plasma [7]): >100 µM |
| CCC(c1cn(-c2cccc(C(=O)O)c2)nn1)n1cc(OC)c(-c2cc(Cl)ccc2-n2cc(Cl)nn2)cc1=O (stereo unspecified) | 0.259 | 0.822 | – |
| COc1cn(Cc2cn(-c3ccccc3)nn2)c(=O)cc1-c1cc(Cl)ccc1-n1cc(Cl)nn1 | 0.0781 | 0.766 | – |

| SMILES | IC50 (Coagulation factor XI [1]) [µM] | IC50 (Plasma kallikrein [2]) [µM] | other results |
| --- | --- | --- | --- |
| COc1cn(Cc2cn(-c3cc(Br)cnc3C#N)nn2)c(=O)cc1-c1cc(Cl)ccc1-n1cc(Cl)nn1 | 2 | 14.2 | – |
| COc1cn(C(Cc2ccccc2)c2cn(-c3ccc(C(=O)O)cc3)nn2)c(=O)cc1-c1cc(Cl)ccc1-n1cc(C(F)(F)F)nn1 (stereo unspecified) | 0.00131 | 0.112 | IC50 (Coagulation factor X): 41.2 µM; IC50 (Trypsin): 14.2 µM; EC1.5 (Plasma [5]): 0.81 µM; IC50 (Prothrombin): 53.7 µM; EC2 (Plasma [7]): >100 µM |
| CCC(c1cn(-c2ccc(C(=O)O)cc2)nn1)n1cc(OC)c(-c2cc(Cl)ccc2-n2cc(Cl)nn2)cc1=O (stereo unspecified) | 0.0845 | 0.655 | IC50 (Coagulation factor X): 17.4 µM; IC50 (Trypsin): 93.1 µM; EC1.5 (Plasma [5]): 25.4 µM; EC2 (Plasma [7]): >100 µM |
| COC(=O)c1cccc(-n2cc(Cn3cc(OC)c(-c4cc(Cl)ccc4-n4cc(Cl)nn4)cc3=O)nn2)c1 | 0.519 | 1.06 | – |
| COc1cn(C(Cc2ccccc2)c2cn(-c3cn[nH]c3)nn2)c(=O)cc1-c1cc(Cl)ccc1-n1cc(C(F)(F)F)nn1 (stereo unspecified) | 0.0232 | 0.9 | EC1.5 (Plasma [5]): 1.57 µM; EC2 (Plasma [7]): >100 µM |
| COC(=O)c1ccc(-n2cc(C(Cc3ccccc3)n3cc(OC)c(-c4cc(Cl)ccc4-n4cc(C(F)(F)F)nn4)cc3=O)nn2)cc1 (stereo unspecified) | 0.0383 | 0.643 | – |
| COc1cn(Cc2cn(-c3ccc(C(=O)O)cc3)nn2)c(=O)cc1-c1cc(Cl)ccc1-n1cc(Cl)nn1 | 0.0387 | 0.832 | – |
| CCC(c1cn(-c2cnn(C)c2)nn1)n1cnc(-c2cc(Cl)ccc2-n2cc(Cl)nn2)cc1=O (stereo unspecified) | 14.6 | 87.2 | – |
| CCC(c1cn(-c2ccc(C(=O)OC)cc2)nn1)n1cc(OC)c(-c2cc(Cl)ccc2-n2cc(Cl)nn2)cc1=O (stereo unspecified) | 0.373 | 1.49 | – |
| COc1cn(Cc2cn(-c3cnn(C)c3)nn2)c(=O)cc1-c1cc(Cl)ccc1-n1cc(Cl)nn1 | 0.288 | 3.74 | – |
| COc1cn(C(Cc2ccccc2)c2cn(-c3cn[nH]c3)nn2)c(=O)cc1-c1cc(Cl)ccc1-n1cc(Cl)nn1 (stereo unspecified) | 0.0214 | 0.683 | EC1.5 (Plasma [5]): 2.64 µM; EC2 (Plasma [7]): >100 µM |
| CCC(c1cn(-c2cccc(C(=O)OC)c2)nn1)n1cc(OC)c(-c2cc(Cl)ccc2-n2cc(Cl)nn2)cc1=O (stereo unspecified) | 1.6 | 2.14 | – |
| COC(=O)c1ccc(-n2cc(Cn3cc(OC)c(-c4cc(Cl)ccc4-n4cc(Cl)nn4)cc3=O)nn2)cc1 | 0.161 | 1.97 | – |
| COc1cn(C(Cc2ccccc2)c2cn(-c3ccccc3)nn2)c(=O)cc1-c1cc(Cl)ccc1-n1cc(Cl)nn1 (stereo unspecified) | 0.0309 | 0.501 | – |
| COc1cn(Cc2cn(-c3ccccc3C(=O)O)nn2)c(=O)cc1-c1cc(Cl)ccc1-n1cc(Cl)nn1 | 0.272 | 11.6 | – |
| COC(=O)c1ccccc1-n1cc(Cn2cc(OC)c(-c3cc(Cl)ccc3-n3cc(Cl)nn3)cc2=O)nn1 | 1.66 | 11.5 | – |
| CCC(c1ccc2cc(C(=O)O)ccc2c1)n1cc(OC)c(-c2cc(Cl)ccc2-n2cc(C(F)(F)F)nn2)cc1=O (stereo unspecified) | – | – | IC50 (Coagulation factor XI [8]): 0.0866 µM; IC50 (Plasma kallikrein [9]): 0.258 µM |
| CC[C@@H](c1cn(-c2ccc(C(=O)OC)cc2)nn1)n1cc(OC)c(-c2cc(Cl)ccc2-n2cc(Cl)nn2)cc1=O | 0.032 | 0.643 | IC50 (Coagulation factor X): 4.2 µM; IC50 (Trypsin): 82.9 µM; EC1.5 (Plasma [5]): 13.2 µM; IC50 (Prothrombin): 67.7 µM; EC2 (Plasma [7]): >100 µM |
| COc1cn([C@@H](Cc2ccccc2)c2cn(-c3ccc(C(=O)O)cc3)nn2)c(=O)cc1-c1cc(Cl)ccc1-n1cc(Cl)nn1 | 0.00152 | 0.0731 | IC50 (Coagulation factor X): 46.8 µM; IC50 (Trypsin): 14.1 µM; Ratio IC50 (Homo sapiens [3]): > 9000; Ratio IC50 (Homo sapiens [4]): > 16000; EC1.5 (Plasma [5]): 0.75 µM; Ratio IC50 (Homo sapiens [6]): > 30000; IC50 (Prothrombin): 24.4 µM; EC2 (Plasma [7]): >100 µM |
| COc1cn(Cc2cn(-c3ccc(Cl)nc3C#N)nn2)c(=O)cc1-c1cc(Cl)ccc1-n1cc(Cl)nn1 | 1.09 | 15.8 | – |
| COc1cn(C(Cc2ccccc2)c2cn(-c3ccccc3)nn2)c(=O)cc1-c1cc(Cl)ccc1-n1cc(C(F)(F)F)nn1 (stereo unspecified) | 0.0309 | 0.746 | – |
| CCC(c1cn(-c2ccccc2C(=O)O)nn1)n1cc(OC)c(-c2cc(Cl)ccc2-n2cc(Cl)nn2)cc1=O (stereo unspecified) | 0.497 | 9.8 | – |
